# In patent US20100267561A1, “HERBICIDAL PYRIDAZINONE DERIVATIVES” (priority 2007, published 2010):
# Experiments:
# Format in all cases: in vivo
# [1] = test system: Virginia (V.) dayflower (Commelina virginica); assay: Test E pre-/postemergence plant response
# [2] = test system: broadleaf signalgrass (Brachiaria platyphylla); assay: Test E pre-/postemergence plant response
# [3] = test system: common sowthistle (Sonchus oleraceous); assay: Test E pre-/postemergence plant response
# [4] = test system: barnyardgrass (Echinochloa crus-galli); assay: Test E pre-/postemergence plant response; settings: Postemergence, scale 0 to 100
# [5] = test system: dallisgrass (Paspalum dilatatum); assay: Test E pre-/postemergence plant response
# [6] = test system: large crabgrass (Digitaria sanguinalis); assay: Test E pre-/postemergence plant response
# [7] = test system: naked crabgrass (Digitaria nuda); assay: Test E pre-/postemergence plant response
# [8] = test system: prickly sida (Sida spinosa); assay: Test E pre-/postemergence plant response
# [9] = test system: blackgrass (Alopecurus myosuroides); assay: Test A pre-/postemergence plant response
# Outline: (§1)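 Soil: loam blended with sand. Formulation: non-phytotoxic solvent mixture plus surfactant, applied as preemergence directed soil spray and as postemergence spray. Scoring: visual, 0 no effect to 100 complete control, roughly 10 days post-treatment in greenhouse.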
# [10] = test system: canarygrass (Phalaris minor); assay: Test A pre-/postemergence plant response
# Outline: as §1
# [11] = Postemergence, 8 g ai/ha, scale 0 to 100
# [12] = Postemergence, 16 g ai/ha; scale 0 to 100
# [13] = Postemergence, 31 g ai/ha; scale 0 to 100
# [14] = Postemergence, 62 g ai/ha; scale 0 to 100
# [15] = Postemergence, 31 g ai/ha, 0 to 100 scale, 0 no effect, 100 complete control
# [16] = Postemergence, 125 g ai/ha, 0 to 100 scale, 0 no effect, 100 complete control
# [17] = Preemergence, 31 g ai/ha, 0 to 100 scale, 0 is no effect, 100 is complete control
# [18] = Preemergence, 125 g ai/ha, 0 to 100 scale (0 no effect, 100 complete control)
# [19] = 8 g ai/ha, Postemergence, scale 0 to 100
# [20] = Postemergence, 500 g ai/ha, 0 to 100 scale, 0 no effect, 100 complete control
# [21] = Preemergence, 500 g ai/ha, 0 to 100 scale (0 no effect, 100 complete control)
smiles,measurement,setting,value
Cc1cc(-c2ccc(Cl)cc2)nn1-c1c(OC(=O)c2cccc(Cl)c2)cnn(C)c1=O [Compound 32],"Plant response rating, Dayflower, V.",[1]; [11],0
same,"Plant response rating, Dayflower, V.",[1]; [12],0
same,"Plant response rating, Dayflower, V.",[1]; [13],0
same,"Plant response rating, Dayflower, V.",[1]; [14],0
same,"Plant response rating, Signalgrass",[2]; [11],80
same,"Plant response rating, Signalgrass",[2]; [12],80
same,"Plant response rating, Signalgrass",[2]; [13],95
same,"Plant response rating, Signalgrass",[2]; [14],100
same,"Plant response rating, Sowthistle",[3]; [11],0
same,"Plant response rating, Sowthistle",[3]; [12],0
same,"Plant response rating, Sowthistle",[3]; [13],0
same,"Plant response rating, Sowthistle",[3]; [14],0
same,"Plant response rating, Barnyardgrass",[4]; 8 g ai/ha,98
same,"Plant response rating, Barnyardgrass",[4]; 16 g ai/ha,98
same,"Plant response rating, Barnyardgrass",[4]; 31 g ai/ha,100
same,"Plant response rating, Barnyardgrass",[4]; 62 g ai/ha,100
same,"Plant response rating, Dallisgrass",[5]; [11],0
same,"Plant response rating, Dallisgrass",[5]; [12],20
same,"Plant response rating, Dallisgrass",[5]; [13],30
same,"Plant response rating, Dallisgrass",[5]; [14],40
same,"Plant response rating, Crabgrass, Large",[6]; [11],35
same,"Plant response rating, Crabgrass, Large",[6]; [12],75
same,"Plant response rating, Crabgrass, Large",[6]; [13],75
same,"Plant response rating, Crabgrass, Large",[6]; [14],80
same,"Plant response rating, Crabgrass, Naked",[7]; [11],60
same,"Plant response rating, Crabgrass, Naked",[7]; [13],80
same,"Plant response rating, Crabgrass, Naked",[7]; [14],90
same,"Plant response rating, Prickly Sida",[8]; [11],0
same,"Plant response rating, Prickly Sida",[8]; [12],0
same,"Plant response rating, Prickly Sida",[8]; [13],0
same,"Plant response rating, Prickly Sida",[8]; [14],0
CCc1c(C)c(-c2ccc(Br)cc2)nn1-c1c(O)cnn(C)c1=O [Compound 83],"Plant response rating, Blackgrass",[9]; [15],90
same,"Plant response rating, Blackgrass",[9]; [16],100
same,"Plant response rating, Blackgrass",[9]; [17],20
same,"Plant response rating, Blackgrass",[9]; [18],100
same,"Plant response rating, Canarygrass",[10]; [15],70
same,"Plant response rating, Canarygrass",[10]; [16],100
same,"Plant response rating, Canarygrass",[10]; [18],90
Cc1cc(-c2ccc(Cl)cc2)nn1-c1c(OC(=O)Oc2ccccc2)cnn(C)c1=O [Compound 54],"Plant response rating, Dayflower, V.",[1]; [19],0
same,"Plant response rating, Dayflower, V.",[1]; [12],0
same,"Plant response rating, Dayflower, V.",[1]; [13],0
same,"Plant response rating, Dayflower, V.",[1]; [14],0
same,"Plant response rating, Signalgrass",[2]; [19],75
same,"Plant response rating, Signalgrass",[2]; [12],90
same,"Plant response rating, Signalgrass",[2]; [13],98
same,"Plant response rating, Signalgrass",[2]; [14],100
same,"Plant response rating, Sowthistle",[3]; [19],0
same,"Plant response rating, Sowthistle",[3]; [12],0
same,"Plant response rating, Sowthistle",[3]; [13],0
same,"Plant response rating, Sowthistle",[3]; [14],0
same,"Plant response rating, Barnyardgrass",[4]; 8 g ai/ha,95
same,"Plant response rating, Barnyardgrass",[4]; 16 g ai/ha,98
same,"Plant response rating, Barnyardgrass",[4]; 31 g ai/ha,100
same,"Plant response rating, Barnyardgrass",[4]; 62 g ai/ha,100
same,"Plant response rating, Dallisgrass",[5]; [19],20
same,"Plant response rating, Dallisgrass",[5]; [12],30
same,"Plant response rating, Dallisgrass",[5]; [13],40
same,"Plant response rating, Dallisgrass",[5]; [14],80
same,"Plant response rating, Crabgrass, Large",[6]; [19],25
same,"Plant response rating, Crabgrass, Large",[6]; [12],80
same,"Plant response rating, Crabgrass, Large",[6]; [13],95
same,"Plant response rating, Crabgrass, Large",[6]; [14],100
same,"Plant response rating, Crabgrass, Naked",[7]; [19],10
same,"Plant response rating, Crabgrass, Naked",[7]; [12],85
same,"Plant response rating, Crabgrass, Naked",[7]; [13],90
same,"Plant response rating, Crabgrass, Naked",[7]; [14],90
same,"Plant response rating, Prickly Sida",[8]; [19],0
same,"Plant response rating, Prickly Sida",[8]; [12],0
same,"Plant response rating, Prickly Sida",[8]; [13],0
same,"Plant response rating, Prickly Sida",[8]; [14],0
CCc1cc(-c2ccc(Br)cc2)nn1-c1c(O)cnn(CC(F)(F)F)c1=O [Compound 73],"Plant response rating, Blackgrass",[9]; [15],90
same,"Plant response rating, Blackgrass",[9]; [16],90
same,"Plant response rating, Blackgrass",[9]; [17],60
same,"Plant response rating, Blackgrass",[9]; [18],90
same,"Plant response rating, Canarygrass",[10]; [15],20
same,"Plant response rating, Canarygrass",[10]; [16],100
same,"Plant response rating, Canarygrass",[10]; [17],30
CCc1cc(-c2ccc(Br)cc2)nn1-c1c(O)c(C)nn(C)c1=O [Compound 74],"Plant response rating, Blackgrass",[9]; [15],100
same,"Plant response rating, Blackgrass",[9]; [16],100
same,"Plant response rating, Blackgrass",[9]; [17],100
same,"Plant response rating, Blackgrass",[9]; [18],100
same,"Plant response rating, Canarygrass",[10]; [15],100
same,"Plant response rating, Canarygrass",[10]; [16],100
same,"Plant response rating, Canarygrass",[10]; [17],80
same,"Plant response rating, Canarygrass",[10]; [18],100
"Cn1ncc(O)c(-c2nn(-c3ccc(C(F)(F)F)cc3)cc2Br)c1=O [Compound 87, 4-[4-bromo-1-[4-(trifluoromethyl)phenyl]-1H-pyrazol-3-yl]-5-hydroxy-2-methyl-3(2H)-pyridazinone]","Plant response rating, Blackgrass",[9]; [15],30
same,"Plant response rating, Blackgrass",[9]; [16],80
same,"Plant response rating, Blackgrass",[9]; [17],30
same,"Plant response rating, Blackgrass",[9]; [18],90
same,"Plant response rating, Canarygrass",[10]; [15],10
same,"Plant response rating, Canarygrass",[10]; [16],70
same,"Plant response rating, Canarygrass",[10]; [17],0
same,"Plant response rating, Canarygrass",[10]; [18],90
"Cc1nn(C)c(=O)c(-c2nc(-c3ccc(Cl)cc3)sc2C)c1O [Compound 79, 4-[2-(4-chlorophenyl)-5-methyl-4-thiazolyl]-5-hydroxy-2,6-dimethyl-3(2H)-pyridazinone]","Plant response rating, Blackgrass",[9]; [15],60
same,"Plant response rating, Blackgrass",[9]; [16],100
same,"Plant response rating, Blackgrass",[9]; [17],80
same,"Plant response rating, Blackgrass",[9]; [18],100
same,"Plant response rating, Canarygrass",[10]; [15],40
same,"Plant response rating, Canarygrass",[10]; [16],90
same,"Plant response rating, Canarygrass",[10]; [17],0
same,"Plant response rating, Canarygrass",[10]; [18],100
CCCc1cc(-c2ccc(Cl)cc2)nn1-c1c(O)cnn(C)c1=O [Compound 76],"Plant response rating, Blackgrass",[9]; [15],90
same,"Plant response rating, Blackgrass",[9]; [16],100
same,"Plant response rating, Blackgrass",[9]; [18],90
same,"Plant response rating, Canarygrass",[10]; [15],40
same,"Plant response rating, Canarygrass",[10]; [16],100
same,"Plant response rating, Canarygrass",[10]; [17],30
same,"Plant response rating, Canarygrass",[10]; [18],70
COc1nn(C)c(=O)c(-n2nc(-c3ccc(Br)cc3)cc2C)c1O [Compound 82],"Plant response rating, Blackgrass",[9]; [15],100
same,"Plant response rating, Blackgrass",[9]; [16],100
same,"Plant response rating, Blackgrass",[9]; [17],70
same,"Plant response rating, Blackgrass",[9]; [18],100
same,"Plant response rating, Canarygrass",[10]; [15],100
same,"Plant response rating, Canarygrass",[10]; [16],100
same,"Plant response rating, Canarygrass",[10]; [17],20
same,"Plant response rating, Canarygrass",[10]; [18],100
"Cc1cc(-c2ccc(Br)cc2)nn1-c1c(O)cnn(C2CCCCO2)c1=O (stereo not shown) [Compound 77, 4-[3-(4-bromophenyl)-5-methyl-1H-pyrazol-1-yl]-5-hydroxy-2-(tetrahydro-2H-pyran-2-yl)-3(2H)-pyridazinone]","Plant response rating, Blackgrass",[9]; [16],100
same,"Plant response rating, Blackgrass",[9]; [20],100
same,"Plant response rating, Blackgrass",[9]; [18],80
same,"Plant response rating, Blackgrass",[9]; [21],100
same,"Plant response rating, Canarygrass",[10]; [16],60
same,"Plant response rating, Canarygrass",[10]; [20],100
same,"Plant response rating, Canarygrass",[10]; [21],90
CCCc1cc(-c2ccc(C(F)(F)F)cc2)nn1-c1c(O)cnn(C)c1=O [Compound 72],"Plant response rating, Blackgrass",[9]; [15],80
same,"Plant response rating, Blackgrass",[9]; [16],100
same,"Plant response rating, Blackgrass",[9]; [17],70
same,"Plant response rating, Blackgrass",[9]; [18],100
same,"Plant response rating, Canarygrass",[10]; [15],40
same,"Plant response rating, Canarygrass",[10]; [16],100
same,"Plant response rating, Canarygrass",[10]; [17],50
same,"Plant response rating, Canarygrass",[10]; [18],80
"Cc1cn(-c2ccc(C(F)(F)F)cc2)nc1-c1c(O)cnn(C)c1=O [Compound 85, 5-hydroxy-2-methyl-4-[4-methyl-1-[4-(trifluoromethyl)phenyl]-1H-pyrazol-3-yl]-3(2H)-pyridazinone]","Plant response rating, Blackgrass",[9]; [15],0
same,"Plant response rating, Blackgrass",[9]; [16],40
same,"Plant response rating, Blackgrass",[9]; [17],0
same,"Plant response rating, Blackgrass",[9]; [18],40
same,"Plant response rating, Canarygrass",[10]; [15],0
same,"Plant response rating, Canarygrass",[10]; [16],20
same,"Plant response rating, Canarygrass",[10]; [17],40
same,"Plant response rating, Canarygrass",[10]; [18],70
